Experimental data reported in patent US20050009840A1 (SUGEN, INC., priority 2003, published 2005).
Where “and” joins values, the source holds several entries; their conditions need not be identical. Equal values may be shown once.

Target: T1, Met kinase domain (GST fusion protein) (Homo sapiens, UniProt P08581)
T1 construct: Purified GST fusion protein containing the Met kinase domain
Test: Met transphosphorylation assay (ELISA, poly(glu-tyr) substrate);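 note: Cell-free ELISA with plate-bound poly(Glu:Tyr 4:1) phosphorylated by GST-fused Met kinase domain plus ATP and Mn2+, phosphotyrosine detected by anti-phosphotyrosine antibody with HRP and ABTS read-out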
Type: biochemical
Settings: read-out: Met IC50

T1 sequence (P08581 1078-1345 limits assumed): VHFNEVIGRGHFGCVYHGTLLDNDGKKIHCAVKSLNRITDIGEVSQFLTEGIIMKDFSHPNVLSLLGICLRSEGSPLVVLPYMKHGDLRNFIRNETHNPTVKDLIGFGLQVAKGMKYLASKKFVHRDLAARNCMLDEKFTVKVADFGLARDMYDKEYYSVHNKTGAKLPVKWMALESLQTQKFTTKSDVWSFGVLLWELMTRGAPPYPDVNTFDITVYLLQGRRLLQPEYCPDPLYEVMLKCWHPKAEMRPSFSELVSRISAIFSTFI

| IC50 | SMILES |
| --- | --- |
| 1.21 µM | Nc1ncc(-c2ccc(C(=O)N3CCC[C@@H]3CN3CCCC3)cc2)cc1OCc1c(F)cccc1F [Example I-122] |
| 1.36 µM | Nc1ncc(-c2ccc(C(=O)N3CCC[C@H]3CN3CCCC3)cc2)cc1OCc1c(F)cccc1F [Example I-123, {4-[6-Amino-5-(2,6-difluoro-benzyloxy)-pyridin-3-yl]-phenyl}-[(2S)-2-pyrrolidin-1-ylmethyl-pyrrolidin-1-yl]-methanone] |
| 14.7 µM | Nc1ncc(-c2ccc(OCC(=O)O)cc2)cc1OCc1c(F)cccc1F [Example I-125, {4-[6-Amino-5-(2,6-difluoro-benzyloxy)-pyridin-3-yl]-phenoxy}-acetic acid] |
| 3.99 µM | Nc1ncc(-c2ccc(O)cc2)cc1OCc1c(F)cccc1Cl [Example I-128, 4-[6-Amino-5-(2-chloro-6-fluoro-benzyloxy)-pyridin-3-yl]-phenol] |
| 19 µM | Nc1ncc(-c2ccc(O)cc2)cc1OCc1ccc(F)cc1Cl [Example I-129, 4-[6-Amino-5-(2-chloro-4-fluoro-benzyloxy)-pyridin-3-yl]-phenol] |
| 9 µM and > 20 µM | Nc1ncc(-c2ccc(O)cc2)cc1OCc1ccc(Cl)cc1Cl [Example I-130, 4-[6-Amino-5-(2,4-dichloro-benzyloxy)-pyridin-3-yl]-phenol] |
| 19 µM | N#Cc1ccccc1COc1cc(-c2ccc(O)cc2)cnc1N [Example I-131, 2-[2-Amino-5-(4-hydroxy-phenyl)-pyridin-3-yloxymethyl]-benzonitrile] |
| 13.8 µM | Nc1ncc(-c2ccc(O)cc2)cc1OCc1ccccc1Cl [Example I-133, 4-[6-Amino-5-(2-chloro-benzyloxy)-pyridin-3-yl]-phenol] |
| 4.18 µM | CS(=O)(=O)Nc1ccc(-c2cnc(N)c(OCc3ccccc3C#N)c2)cc1 [Example I-135, N-{4-[6-Amino-5-(2-cyano-benzyloxy)-pyridin-3-yl]-phenyl}-methanesulfonamide] |
| > 20 µM | CS(=O)(=O)Nc1ccc(-c2cnc(N)c(OCc3ccccc3C(N)=O)c2)cc1 [Example I-136, 2-[2-Amino-5-(4-methanesulfonylamino-phenyl)-pyridin-3-yloxymethyl]-benzamide] |
| > 20 µM | CS(=O)(=O)Nc1ccc(-c2cnc(N)c(OCc3ccccc3C(=O)O)c2)cc1 [Example I-137, 2-[2-Amino-5-(4-methanesulfonylamino-phenyl)-pyridin-3-yloxymethyl]-benzoic acid] |
| > 20 µM | CN1CCN(C(=O)c2ccccc2COc2cc(-c3ccc(NS(C)(=O)=O)cc3)cnc2N)CC1 [Example I-138, N-(4-{6-Amino-5-[2-(4-methyl-piperazine-1-carbonyl)-benzyloxy]-pyridin-3-yl}-phenyl)-methanesulfonamide] |
| > 20 µM | CS(=O)(=O)Nc1ccc(-c2cnc(N)c(OCc3ccccc3C(=O)NCCO)c2)cc1 [Example I-139, 2-[2-Amino-5-(4-methanesulfonylamino-phenyl)-pyridin-3-yloxymethyl]-N-(2-hydroxy-ethyl)-benzamide] |
| > 20 µM | CC(C)CNC(=O)c1ccccc1COc1cc(-c2ccc(NS(C)(=O)=O)cc2)cnc1N [Example I-140, 2-[2-Amino-5-(4-methanesulfonylamino-phenyl)-pyridin-3-yloxymethyl]-N-isobutyl-benzamide] |
| 0.63 µM | Nc1ncc(-c2ccc(C(=O)N3CC[C@H](N)C3)cc2)cc1OCc1c(F)cccc1Cl [Example I-145, {4-[6-Amino-5-(2-chloro-6-fluoro-benzyloxy)-pyridin-3-yl]-phenyl}-[(3S)-3-amino-pyrrolidin-1-yl]-methanone] |
| 1.94 µM | CN1CCN(C(=O)c2ccc(-c3cnc(N)c(OCc4c(F)cccc4Cl)c3)cc2)CC1 [Example I-146, {4-[6-Amino-5-(2-chloro-6-fluoro-benzyloxy)-pyridin-3-yl]-phenyl}-(4-methyl-piperazin-1-yl)-methanone] |
| 1.45 µM | CC(=O)N1CCN(C(=O)c2ccc(-c3cnc(N)c(OCc4c(F)cccc4Cl)c3)cc2)CC1 [Example I-147, 1-(4-{4-(6-Amino-5-(2-chloro-6-fluoro-benzyloxy)-pyridin-3-yl]-benzoyl}-piperazin-1-yl)-ethanone] |
| 6.4 µM | Nc1ncc(-c2ccc(C(=O)NCCN3CCOCC3)cc2)cc1OCc1c(F)cccc1Cl [Example I-148, 4-[6-Amino-5-(2-chloro-6-fluoro-benzyloxy)-pyridin-3-yl]-N-(2-morpholin-4-yl-ethyl)-benzamide] |
| 5.6 µM | Nc1ncc(-c2ccc(C(=O)NCCCN3CCOCC3)cc2)cc1OCc1c(F)cccc1Cl [Example I-149, 4-[6-Amino-5-(2-chloro-6-fluoro-benzyloxy)-pyridin-3-yl]-N-(3-morpholin-4-yl-propyl)-benzamide] |
| 1.44 µM | Nc1ncc(-c2ccc(C(=O)N3CC[C@H](N)C3)cc2)cc1OCc1ccccc1Cl [Example I-154, {4-[6-Amino-5-(2-chloro-benzyloxy)-pyridin-3-yl]-phenyl}-[(3S)-3-amino-pyrrolidin-1-yl]-methanone] |
| 2.1 µM | CN1CCN(C(=O)c2ccc(-c3cnc(N)c(OCc4ccccc4Cl)c3)cc2)CC1 [Example I-156, {4-[6-Amino-5-(2-chloro-benzyloxy)-pyridin-3-yl]-phenyl}-(4-methyl-piperazin-1-yl)-methanone] |
| 3.8 µM | CC(=O)N1CCN(C(=O)c2ccc(-c3cnc(N)c(OCc4ccccc4Cl)c3)cc2)CC1 [Example I-157, 1-(4-{4-[6-Amino-5-(2-chloro-benzyloxy)-pyridin-3-yl]-benzoyl}-piperazin-1-yl)-ethanone] |
| 8.9 µM | Nc1ncc(-c2ccc(C(=O)NCCN3CCOCC3)cc2)cc1OCc1ccccc1Cl [Example I-158, 4-[6-Amino-5-(2-chloro-benzyloxy)-pyridin-3-yl]-N-(2-morpholin-4-yl-ethyl)-benzamide] |
| 2.05 µM | N#Cc1ccccc1COc1cc(-c2ccc(C(=O)N3CC[C@H](N)C3)cc2)cnc1N [Example I-164] |
| 3.2 µM | CN1CCN(C(=O)c2ccc(-c3cnc(N)c(OCc4ccccc4C#N)c3)cc2)CC1 [Example I-166, 2-{2-Amino-5-[4-(4-methyl-piperazine-1-carbonyl)-phenyl]-pyridin-3-yloxymethyl}-benzonitrile] |
| 5.7 µM | CC(=O)N1CCN(C(=O)c2ccc(-c3cnc(N)c(OCc4ccccc4C#N)c3)cc2)CC1 [Example I-167, 2-{5-[4-(4-Acetyl-piperazine-1-carbonyl)-phenyl]-2-amino-pyridin-3-yloxymethyl}-benzonitrile] |
| 8.6 µM | N#Cc1ccccc1COc1cc(-c2ccc(C(=O)NCCN3CCOCC3)cc2)cnc1N [Example I-169, 4-[6-Amino-5-(2-cyano-benzyloxy)-pyridin-3-yl]-N-(2-morpholin-4-yl-ethyl)-benzamide] |
| 1.2 µM | Nc1ncc(-c2ccc(C(=O)N3CC[C@H](N)C3)cc2)cc1OCc1ccc(Cl)cc1Cl [Example I-175, {4-[6-Amino-5-(2,4-dichloro-benzyloxy)-pyridin-3-yl]-phenyl}-[(3S)-3-amino-pyrrolidin-1-yl]-methanone] |

| SMILES | IC50 |
| --- | --- |
| Nc1ncc(-c2ccc(O)cc2)cc1OCc1c(F)cccc1F [Example I-118, 4-[6-Amino-5-(2,6-difluoro-benzyloxy)-pyridin-3-yl]-phenyl] | 3.79 µM |
| Nc1ncc(-c2cccc3[nH]ccc23)cc1OCc1c(F)cccc1F [Example I-119, 3-(2,6-Difluoro-benzyloxy)-5-(1H-indol-4-yl)-pyridin-2-ylamine] | 5.8 µM |
| Nc1ncc(-c2ccc(OCC(=O)N3CCC[C@@H]3CN3CCCC3)cc2)cc1OCc1c(F)cccc1F [Example I-126, 2-{4-[6-Amino-5-(2,6-difluoro-benzyloxy)-pyridin-3-yl]-phenoxy}-1-[(2R)-2-pyrrolidin-1-ylmethyl-pyrrolidin-1-yl]-ethanone] | 3.58 µM |
| Nc1ncc(-c2ccc(OCC(=O)N3CCC[C@H]3CN3CCCC3)cc2)cc1OCc1c(F)cccc1F [Example I-127, 2-{4-[6-Amino-5-(2,6-difluoro-benzyloxy)-pyridin-3-yl]-phenoxy}-1-[(2S)-2-pyrrolidin-1-ylmethyl-pyrrolidin-1-yl]-ethanone] | 5.43 µM |
| Nc1ncc(-c2ccc(O)cc2)cc1OCc1ccccc1C(F)(F)F [Example I-132, 4-[6-Amino-5-(2-trifluoromethyl-benzyloxy)-pyridin-3-yl]-phenol] | 3.67 µM |
| CC(C)(C)c1ccc(COc2cc(-c3ccc(O)cc3)cnc2N)cc1 [Example I-134, 4 [6-Amino-5-(4-teert-butyl-benzyloxy)-pyridin-3-yl]-phenol] | 4 µM |
| CN(C)[C@H]1CCN(C(=O)c2ccc(-c3cnc(N)c(OCc4c(F)cccc4Cl)c3)cc2)C1 [Example I-144, {4-[6-Amino-5-(2-chloro-6-fluoro-benzyloxy)-pyridin-3-yl]-phenyl}-[(3S)-3-dimethylamino-pyrrolidin-1-yl]-methanone] | 1.7 µM |
| CN(C)[C@H]1CCN(C(=O)c2ccc(-c3cnc(N)c(OCc4ccccc4Cl)c3)cc2)C1 [Example I-153, {4-[6-Amino-5-(2-chloro-benzyloxy)-pyridin-3-yl]-phenyl}-[(3S)-3-dimethylamino-pyrrolidin-1-yl]-methanone] | 12.7 µM |
| Nc1ncc(-c2ccc(C(=O)NCCCN3CCOCC3)cc2)cc1OCc1ccccc1Cl [Example I-159, 4-[6-Amino-5-(2-chloro-benzyloxy)-pyridin-3-yl]-N-(3-morpholin-4-yl-propyl)-benzamide] | 4.5 µM |
| CN(C)[C@H]1CCN(C(=O)c2ccc(-c3cnc(N)c(OCc4ccccc4C#N)c3)cc2)C1 [Example I-163, 2-{2-Amino-5-[4-((3S)-3-dimethylamino-pyrrolidine-1-carbonyl)-phenyl]-pyridin-3-yloxymethyl}-benzonitrile] | > 20 µM |
| N#Cc1ccccc1COc1cc(-c2ccc(C(=O)NCCCN3CCOCC3)cc2)cnc1N [Example I-170, 4-[6-Amino-5-(2-cyano-benzyloxy)-pyridin-3-yl]-N-(3-morpholin-4-yl-propyl)-benzamide] | 17.3 µM |
| CN(C)[C@H]1CCN(C(=O)c2ccc(-c3cnc(N)c(OCc4ccc(Cl)cc4Cl)c3)cc2)C1 [Example I-174, {4-[6-Amino-5-(2,4-dichloro-benzyloxy)-pyridin-3-yl]-phenyl}-[(3S)-3-dimethylamino-pyrrolidin-1-yl]-methanone] | 0.8 µM |
